Measurements from PMC11669383, “Modulating Liposome Surface Charge for Maximized ATP Regeneration in Synthetic Nanovesicles” (ACS Synthetic Biology, 2024).

Experiments:
Experiment in all cases: coupled ATP synthesis in proteoliposomes, luciferase luminescence
[1] = molecular target: T1, quinone-fumarate oxidoreductase (FRD) (Escherichia coli, UniProt P00363); assay type: biochemical
T1 construct: gene frdA; coreconstituted in liposomes; with Fumarate reductase iron-sulfur subunit; Fumarate reductase subunit C; Fumarate reductase subunit D
T1 sequence (P00363 2-602, other chains not shown): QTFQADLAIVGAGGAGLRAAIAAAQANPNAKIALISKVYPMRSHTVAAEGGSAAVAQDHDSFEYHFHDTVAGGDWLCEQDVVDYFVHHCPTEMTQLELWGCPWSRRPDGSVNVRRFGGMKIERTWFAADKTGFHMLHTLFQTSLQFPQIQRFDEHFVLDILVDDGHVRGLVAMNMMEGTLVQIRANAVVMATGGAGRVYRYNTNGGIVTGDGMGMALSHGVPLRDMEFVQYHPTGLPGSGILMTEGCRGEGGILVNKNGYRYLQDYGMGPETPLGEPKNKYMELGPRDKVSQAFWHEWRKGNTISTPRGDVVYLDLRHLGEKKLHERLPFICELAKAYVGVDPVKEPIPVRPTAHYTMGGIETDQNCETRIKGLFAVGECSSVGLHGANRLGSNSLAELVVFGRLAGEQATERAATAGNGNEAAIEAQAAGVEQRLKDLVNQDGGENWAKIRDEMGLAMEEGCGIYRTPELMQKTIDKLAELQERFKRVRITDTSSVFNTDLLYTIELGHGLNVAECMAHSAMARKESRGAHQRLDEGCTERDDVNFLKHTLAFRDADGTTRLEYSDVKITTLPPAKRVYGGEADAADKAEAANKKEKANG
T1 sequence (P0AC47 2-244 partner, other chains not shown): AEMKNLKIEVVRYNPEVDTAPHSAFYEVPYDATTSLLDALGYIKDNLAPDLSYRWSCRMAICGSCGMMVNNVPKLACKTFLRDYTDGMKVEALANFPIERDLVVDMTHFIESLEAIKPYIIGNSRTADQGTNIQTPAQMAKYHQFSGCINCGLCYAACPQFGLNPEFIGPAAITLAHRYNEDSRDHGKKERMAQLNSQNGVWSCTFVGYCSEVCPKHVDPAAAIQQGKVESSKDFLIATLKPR
T1 sequence (P0A8Q0 whole entry partner, other chains not shown): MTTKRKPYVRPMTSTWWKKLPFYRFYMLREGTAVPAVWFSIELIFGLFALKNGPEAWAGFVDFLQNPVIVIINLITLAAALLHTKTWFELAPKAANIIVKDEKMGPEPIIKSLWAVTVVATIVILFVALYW

[2] = molecular target: T1, quinone-fumarate oxidoreductase (FRD); assay type: biochemical; conditions: bo3 oxidase and ATP synthase coreconstituted in E. coli polar lipid liposomes, 2 mol % ubiquinone Q8, succinate 1-2000 μM, pH 7.5, read-out is the coupled rate, read-out: apparent KM
[3] = substrate: NC(=O)C1=CN([C@@H]2O[C@H](COP(=O)(O)OP(=O)(O)OC[C@H]3O[C@@H](n4cnc5c(N)ncnc54)[C@H](O)[C@@H]3O)[C@@H](O)[C@H]2O)C=CC1; assay type: biochemical, Escherichia coli; conditions: NDH-2 added to liposomes with bo3 oxidase, FRD and ATP synthase, 2 mol % ubiquinone Q8, NADH 5-200 μM, pH 7.5, read-out is the coupled rate

O=C(O)CC(=O)O [malonate]
coupled ATP synthesis in proteoliposomes, luciferase luminescence [1]: The reaction was sensitive to the complex II inhibitor malonate.

O=C(O)CCC(=O)O [succinate]
Km [2]: 62.2 µM

B1: NADH dehydrogenase II (NDH-2) (Escherichia coli K-12) (protein)
chain: TTPLKKIVIVGGGAGGLEMATQLGHKLGRKKKAKITLVDRNHSHLWKPLLHEVATGSLDEGVDALSYLAHARNHGFQFQLGSVIDIDREAKTITIAELRDEKGELLVPERKIAYDTLVMALGSTSNDFNTPGVKENCIFLDNPHQARRFHQEMLNLFLKYSANLGANGKVNIAIVGGGATGVELSAELHNAVKQLHSYGYKGLTNEALNVTLVEAGERILPALPPRISAAAHNELTKLGVRVLTQTMVTSADEGGLHTKDGEYIEADLMVWAAGIKAPDFLKDIGGLETNRINQLVVEPTLQTTRDPDIYAIGDCASCPRPEGGFVPPRAQAAHQMATCAMNNILAQMNGKPLKNYQYKDHGSLVSLSNFSTVGSLMGNLTRGSMMIEGRIARFVYISLYRMHQIALHGYFKTGLMMLVGSINRVIRPRLKLH
notes: 45 kDa peripheral membrane protein with FAD
Km [3]: 18.5 µM
